Source: article PMC12706778, “Humanization of Drug Metabolism in the Plasmodium berghei Mouse Model for Antimalarial Drug Discovery” (ACS Infectious Diseases, 2025)
Blank lines part the entries; values can stand above or below the compound they belong to.

Legend:
[1] = Intrinsic clearance with 8HUM mouse hepatic microsomes; format: in vitro ADME
Protocol: (§1) Microsomes from 8HUM were prepared as described previously. Compounds were added at 0.5 μM (metabolic stability) or 5 μM (metabolite profiling) to microsomes in buffer (0.5 mg/mL protein in 50 mM potassium phosphate, pH 7.4), and reactions were initiated with the addition of excess NADPH (final concentration 0.8 mg/mL). Aliquots (50 μL) were taken immediately and at 3, 6, 9, 15, and 30 min, mixed with two volumes of acetonitrile containing internal standard (donepezil, 50 ng/mL), and kept on ice. After all samples were collected, 250 μL of 20% acetonitrile was added to each sample and samples were then centrifuged for 10 min at 3000g at ambient temperature. LC–MS/MS analysis was carried out immediately.
(§2) Microsomal incubation samples were analyzed on an Acquity UPLC system coupled to a Xevo TQS-Micro, operated using MassLynx software version 4.2 (Waters, Wilmslow, UK). […]
(§3) Raw LC–MS/MS data were exported to XLfit (IDBS, Woking, UK) for calculation of the exponential decay rate constant (k) from the ratio of the peak area of the test compound to the internal standard at each time point. Intrinsic clearance (CLint) was calculated by multiplying k by the incubation volume and […]. […] Lower and upper limits of quantitation were 0.011 and 0.1 mL/min/mg, respectively. […]

[2] = Intrinsic clearance with human hepatic microsomes; format: in vitro ADME; details: for metabolism with hepatic microsomes (in words): stated for hepatic microsomes from human, 8HUM and WT mice together
Protocol: as §1
(§4) Microsomal incubation samples were analyzed on an Acquity UPLC system coupled to a Xevo TQS-Micro, operated using MassLynx software version 4.2 (Waters, Wilmslow, UK). […] The mass spectrometer was operated with electrospray ionization in positive mode, with a capillary voltage of 0.8 kV, a desolvation temperature of 500 °C (in vitro samples) or 600 °C (PK samples), a desolvation gas flow at 1000 L/h, a cone gas flow at 150 L/h, and a source temperature at 150 °C. Multiple reaction monitoring transitions, cone voltages, and collision energies were optimized for each compound using QuanOptimise software.
Raw LC–MS/MS data were exported to XLfit (IDBS, Woking, UK) for calculation of the exponential decay rate constant (k) from the ratio of the peak area of the test compound to the internal standard at each time point. Intrinsic clearance (CLint) was calculated by multiplying k by the incubation volume and […]. […] Lower and upper limits of quantitation were 0.011 and 0.1 mL/min/mg, respectively. Values were transferred to RStudio (Posit, Boston, MA, USA) for visualization using the ggplot2 package.

[3] = Oral pharmacokinetics in whole blood of 8HUM mice; format: in vivo, mouse; details: for Tmax / blood plasma ratio: female, mouse; for Tmax: 8HUM, po; for blood plasma ratio: blood and plasma samples from same animals at identical timepoints, read-out: B/P (blood-to-plasma ratio); for AUCinf higher in 8HUM than in WT mice: oral dose, 8HUM versus WT
Protocol: (§5) Three female mice were used in each pharmacokinetic experiment. Dose levels and schedules were as described in the text. All compounds were administered as fine suspensions in a vehicle of 1% methylcellulose and 0.5% Tween80 in water at a dose volume of 5 mL/kg. Serial blood samples (10 μL) were taken from the tail vein at the time points shown, diluted into 9 volumes of Milli-Q water, and stored at −20 °C prior to bioanalysis. PK parameters were determined by noncompartmental analysis using the Phoenix WinNonlin version 8.3.1.5014 (Certara).
as §4
(§6) On the day of sample analysis, calibration standards (CSs) and quality controls (QCs) were prepared from separate compound aliquots. Compounds were dissolved in DMSO and spiked into diluted blank blood as a control matrix, prior to extraction with three volumes of acetonitrile containing the internal standard (donepezil at 5 ng/mL), in parallel with PK samples. Concentration of the drug in samples was determined by interpolation onto CS values using TargetLynx (Waters). Acceptance criteria of the bioanalytical method included a CS accuracy of ±20% of nominal (theoretical) concentration across the range of interest. […] QCs at low-, medium-, and high- concentration levels were injected throughout the analytical run, with an acceptance criterion of 66% of injected samples being within ±20% of nominal concentrations. […] Sample carryover was determined in a blank injection immediately following the injection of the top CS. Carryover was deemed accepted when the test compound response in the blank was <1% of that in the top calibration sample.

[4] = Oral pharmacokinetics in whole blood of WT mice; format: in vivo; details: female, mouse; for Tmax: WT, po; for blood plasma ratio: WT mice, blood and plasma samples from same animals at identical timepoints, read-out: B/P (blood-to-plasma ratio)
Protocol: as §5, §4, §6

[5] = Intrinsic clearance with WT mouse hepatic microsomes; format: in vitro ADME; details: WT mouse microsomes versus human or 8HUM
Protocol: as §1, §2, §3

Plasmodium berghei = experiment: Short course P. berghei infection efficacy in 8HUM mice; format: in vivo, Plasmodium berghei ANKA in 8HUM mice; details: 8HUM infected with 0.3 × 10^6 P. berghei infected erythrocytes; single dose 7 mg/kg 24 h after infection; untreated approximately 10% after 5 days; n = 3
Protocol: Donor mice (CD-1) were intraperitoneally administered a solution containing cryopreserved erythrocytes infected with P. berghei ANKA (200 μL at approximately 4% parasitemia). […] Piperaquine (Sigma, C7874) was administered at 7 mg/kg in aqueous vehicle containing 1% (w/v) methylcellulose and 0.5% (w/v) Tween 80. Peripheral blood samples were collected daily, and parasitemia was determined as described.

[6] = chloroquine and primaquine 5 mg/kg, quinine 20 mg/kg

SMILES: CO[C@H]1O[C@@H]2O[C@@]3(C)CC[C@H]4[C@H](C)CC[C@@H]([C@H]1C)[C@@]24OO3 [Artemether, artemether]
- metabolism by human liver microsomes (in words) [2]: rapidly metabolized

SMILES: C[C@H]1[C@H](OC(=O)CCC(=O)O)O[C@@H]2O[C@@]3(C)CC[C@H]4[C@H](C)CC[C@@H]1[C@@]24OO3 [Artesunate, artesunate]
- metabolism by human liver microsomes (in words) [2]: rapidly metabolized

SMILES: O=C1C(O)=C([C@H]2CC[C@H](c3ccc(Cl)cc3)CC2)C(=O)c2ccccc21 [Atovaquone, atovaquone]
- metabolism with hepatic microsomes (in words) [2]: Very little metabolism

SMILES: C[C@H]1c2cccc(O)c2C(=O)C2=C(O)[C@]3(O)C(=O)C(C(N)=O)=C(O)[C@@H](N(C)C)[C@@H]3[C@@H](O)[C@@H]21 [Doxycycline, doxycycline]
- metabolism with hepatic microsomes (in words) [2]: Very little metabolism

SMILES: OC(c1cc(C(F)(F)F)nc2c(C(F)(F)F)cccc12)C1CCCCN1 (centres unmarked) [Mefloquine, mefloquine]
- Tmax ([3]; whole blood): 7.3 ± 1.2 h
- blood plasma ratio ([3]; whole blood and plasma, oral, 8HUM mice): 1.41 ± 0.16
- Tmax ([4]; whole blood): 4.7 ± 1.2 h
- blood plasma ratio ([4]; whole blood and plasma, oral): 1.44 ± 0.07
- metabolism with hepatic microsomes (in words) [2]: Very little metabolism

SMILES: COc1cc(NC(C)CCCN)c2ncccc2c1 (centres unmarked) [Primaquine, primaquine]
- C max ([3]; 8HUM mice, whole blood, PO, chloroquine and primaquine 5 mg/kg, quinine 20 mg/kg, n = 3): 534 ± 37 ng/mL
- Tmax ([3]; in vivo): 0.8 ± 0.2 h
- blood plasma ratio ([3]; in vivo, 8HUM mice): 1.01 ± 0.03
- AUCinf higher in 8HUM than in WT mice [3, 6]: 22 fold
- Tmax ([4]; in vivo): 0.6 ± 0.2 h
- blood plasma ratio ([4]; in vivo): 1.05 ± 0.19
- stability with WT microsomes compared with human or 8HUM microsomes [5]: less stable

SMILES: C=C[C@H]1C[N@@]2CC[C@H]1C[C@H]2[C@H](O)c1ccnc2ccc(OC)cc12 [Quinine, quinine]
- Tmax ([3]; whole blood): 10.7 ± 11.7 h
- Tmax ([4]; whole blood): 0.3 ± 0.1 h

SMILES: Clc1ccc2c(N3CCN(CCCN4CCN(c5ccnc6cc(Cl)ccc56)CC4)CC3)ccnc2c1 [piperaquine]
- parasitemia after treatment (Plasmodium berghei): almost undetectable levels

Further lines, results first:

- stability in 8HUM microsomes compared with human [1]: much more stable
- metabolism by human liver microsomes (in words) [2]: rapidly metabolized
SMILES: CCN(CC)Cc1cc(Nc2ccnc3cc(Cl)ccc23)ccc1O [Amodiaquine, amodiaquine]

- Tmax ([3]; in vivo): 3 ± 2.6 h
- blood plasma ratio ([3]; in vivo, 8HUM mice): 3.88 ± 1.64
- AUCinf higher in 8HUM than in WT mice [3, 6]: 2.8 fold
- Tmax ([4]; in vivo): 2 h
- blood plasma ratio ([4]; in vivo): 3.03 ± 0.38
- stability with WT microsomes compared with human or 8HUM microsomes [5]: less stable
SMILES: CCN(CC)CCCC(C)Nc1ccnc2cc(Cl)ccc12 (centres unmarked) [Chloroquine, chloroquine]

- metabolism with hepatic microsomes (in words) [2]: Very little metabolism
SMILES: [H]/N=C(\N/C(=N/[H])Nc1ccc(Cl)cc1)NC(C)C [Proguanil, proguanil]

- metabolism with hepatic microsomes (in words) [2]: Very little metabolism
SMILES: CCc1nc(N)nc(N)c1-c1ccc(Cl)cc1 [Pyrimethamine, pyrimethamine]
